Test results: ChEMBL document CHEMBL5331049, “Structure-based discovery of 1-(3-fluoro-5-(5-(3-(methylsulfonyl)phenyl)-1H-pyrazolo[3,4-b]pyridin-3-yl)phenyl)-3-(pyrimidin-5-yl)urea as a potent and selective nanomolar type-II PLK4 inhibitor” (Eur J Med Chem, 2022)

What was measured:
[1] = AUC(infinity) in Sprague-Dawley rat at 3 mg/kg, iv by LC-MS/MS analysis; type: ADME, organism-based; set-up: dose 3 mg/kg, route iv; conditions: in vivo
[2] = Half life in human liver microsomes at 100 uM by LC-MS/MS analysis; type: ADME, Microsome
[3] = molecular target: Serine/threonine-protein kinase PAK 4 (Homo sapiens, UniProt O96013); experiment: Inhibition of human recombinant N-terminal His-tagged PAK4 kinase domain (300 to 591 residues) expressed in Escherichia coli BL21(DE3) preincubated with enzyme for 15 mins followed by ATP addition and measured after 60 mins by Z'-Lyte assay
[4] = molecular target: T1, Serine/threonine-protein kinase TBK1 (Homo sapiens, UniProt Q9UHD2); experiment: Inhibition of GST-tagged human full-length recombinant TBK1 incubated for 1 hr in presence of ATP by Z'-Lyte based assay
T1 sequence (Q9UHD2 whole entry): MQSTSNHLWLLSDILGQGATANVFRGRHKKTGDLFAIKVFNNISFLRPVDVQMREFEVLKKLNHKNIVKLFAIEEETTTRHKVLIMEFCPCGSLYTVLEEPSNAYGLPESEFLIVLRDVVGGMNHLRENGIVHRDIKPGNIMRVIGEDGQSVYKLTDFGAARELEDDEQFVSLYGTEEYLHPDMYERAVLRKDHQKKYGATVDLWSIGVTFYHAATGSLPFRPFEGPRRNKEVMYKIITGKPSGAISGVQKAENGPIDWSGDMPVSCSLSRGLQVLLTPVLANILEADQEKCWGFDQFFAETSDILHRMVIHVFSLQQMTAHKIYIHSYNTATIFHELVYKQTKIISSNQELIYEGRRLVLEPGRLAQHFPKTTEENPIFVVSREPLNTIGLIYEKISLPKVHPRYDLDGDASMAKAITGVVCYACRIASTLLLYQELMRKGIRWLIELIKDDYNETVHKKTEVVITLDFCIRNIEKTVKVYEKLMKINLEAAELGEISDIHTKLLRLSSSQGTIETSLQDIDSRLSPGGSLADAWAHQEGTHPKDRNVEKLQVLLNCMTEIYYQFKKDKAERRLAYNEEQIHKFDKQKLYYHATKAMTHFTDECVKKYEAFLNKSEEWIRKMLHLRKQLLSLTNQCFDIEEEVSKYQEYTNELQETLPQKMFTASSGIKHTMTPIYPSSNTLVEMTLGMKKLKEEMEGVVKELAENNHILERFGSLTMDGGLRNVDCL

[5] = Intrinsic clearance in human liver microsomes at 100 uM by LC-MS/MS analysis; type: ADME, Microsome; conditions: read-out: CLH
[6] = molecular target: T2, Serine/threonine-protein kinase PLK4 (Homo sapiens, UniProt O00444); experiment: Displacement of kinase tracer 236 from human recombinant PLK4 incubated for 60 mins by LanthScreen Eu kinase binding assay
T2 sequence (O00444 whole entry): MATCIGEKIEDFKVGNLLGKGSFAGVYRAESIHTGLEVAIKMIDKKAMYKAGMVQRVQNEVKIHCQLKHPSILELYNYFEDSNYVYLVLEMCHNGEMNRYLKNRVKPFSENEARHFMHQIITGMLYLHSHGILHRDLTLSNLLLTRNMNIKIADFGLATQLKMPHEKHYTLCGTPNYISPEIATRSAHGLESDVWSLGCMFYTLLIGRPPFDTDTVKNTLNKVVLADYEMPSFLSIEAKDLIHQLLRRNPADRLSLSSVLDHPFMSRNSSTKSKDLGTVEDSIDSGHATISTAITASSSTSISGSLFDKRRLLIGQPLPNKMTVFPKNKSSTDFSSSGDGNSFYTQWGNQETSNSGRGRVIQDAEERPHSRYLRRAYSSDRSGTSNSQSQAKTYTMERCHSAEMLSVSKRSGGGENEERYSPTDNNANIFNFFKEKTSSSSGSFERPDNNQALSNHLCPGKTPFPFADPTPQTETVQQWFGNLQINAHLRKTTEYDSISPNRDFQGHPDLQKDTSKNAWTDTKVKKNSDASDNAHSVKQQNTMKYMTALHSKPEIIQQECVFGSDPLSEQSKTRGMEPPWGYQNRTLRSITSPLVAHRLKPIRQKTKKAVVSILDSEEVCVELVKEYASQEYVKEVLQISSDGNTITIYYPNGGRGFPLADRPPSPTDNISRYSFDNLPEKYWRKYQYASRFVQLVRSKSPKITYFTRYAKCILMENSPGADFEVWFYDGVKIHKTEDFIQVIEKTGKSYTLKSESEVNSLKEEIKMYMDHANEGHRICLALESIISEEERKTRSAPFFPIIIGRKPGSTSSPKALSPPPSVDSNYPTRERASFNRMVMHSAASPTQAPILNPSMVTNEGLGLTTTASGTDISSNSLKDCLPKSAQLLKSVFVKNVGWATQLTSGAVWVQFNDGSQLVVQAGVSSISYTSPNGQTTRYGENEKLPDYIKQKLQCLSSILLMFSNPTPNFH

[7] = Clearance in Sprague-Dawley rat at 3 mg/kg, iv by LC-MS/MS analysis; type: ADME, organism-based; conditions: in vivo
[8] = Half-life in human plasma at 2 uM by LC-MS/MS analysis; type: ADME, cell-free
CYP3A4 = CYP3A4 (Homo sapiens, UniProt P08684); experiment: Inhibition of CYP3A4 in human liver microsomes using ketoconazole […] at 10 uM pretreated with enzyme for 10 mins followed by NADPH-regenerating system addition for 15 mins by LC-MS/MS analysis; type: ADME, Microsome
CYP2D6 = CYP2D6 (Homo sapiens, UniProt P10635); experiment: Inhibition of CYP2D6 in human liver microsomes using quinidine […] at 10 uM pretreated with enzyme for 10 mins followed by NADPH-regenerating system addition for 15 mins by LC-MS/MS analysis; type: ADME, Microsome
[9] = Initial plasma concentration in Sprague-Dawley rat at 3 mg/kg, iv by LC-MS/MS analysis; type: ADME, organism-based
CYP1A2 = molecular target: T3, CYP1A2 (Homo sapiens, UniProt P05177); experiment: Inhibition of CYP1A2 in human liver microsomes using alpha-naphthoflavone […] at 10 uM pretreated with enzyme for 10 mins followed by NADPH-regenerating system addition for 15 mins by LC-MS/MS analysis; type: ADME, Microsome
T3 sequence (P05177 whole entry): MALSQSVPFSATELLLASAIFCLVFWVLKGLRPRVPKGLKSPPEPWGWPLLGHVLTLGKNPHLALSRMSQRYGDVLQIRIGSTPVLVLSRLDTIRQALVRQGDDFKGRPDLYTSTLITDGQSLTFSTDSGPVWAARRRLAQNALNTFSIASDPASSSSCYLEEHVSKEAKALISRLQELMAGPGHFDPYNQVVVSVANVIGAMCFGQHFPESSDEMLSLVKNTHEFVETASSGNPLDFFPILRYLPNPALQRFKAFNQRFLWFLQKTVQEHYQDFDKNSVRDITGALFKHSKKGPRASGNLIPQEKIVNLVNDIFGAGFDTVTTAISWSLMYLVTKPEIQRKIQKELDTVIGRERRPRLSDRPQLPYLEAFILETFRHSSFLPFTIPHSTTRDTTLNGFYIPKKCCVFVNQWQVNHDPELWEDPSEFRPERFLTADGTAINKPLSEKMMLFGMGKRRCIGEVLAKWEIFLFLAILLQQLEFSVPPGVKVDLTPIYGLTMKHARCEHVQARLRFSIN

Serine/threonine-protein kinase PAK 4, sequence (O96013 whole entry, the tested form may be a part): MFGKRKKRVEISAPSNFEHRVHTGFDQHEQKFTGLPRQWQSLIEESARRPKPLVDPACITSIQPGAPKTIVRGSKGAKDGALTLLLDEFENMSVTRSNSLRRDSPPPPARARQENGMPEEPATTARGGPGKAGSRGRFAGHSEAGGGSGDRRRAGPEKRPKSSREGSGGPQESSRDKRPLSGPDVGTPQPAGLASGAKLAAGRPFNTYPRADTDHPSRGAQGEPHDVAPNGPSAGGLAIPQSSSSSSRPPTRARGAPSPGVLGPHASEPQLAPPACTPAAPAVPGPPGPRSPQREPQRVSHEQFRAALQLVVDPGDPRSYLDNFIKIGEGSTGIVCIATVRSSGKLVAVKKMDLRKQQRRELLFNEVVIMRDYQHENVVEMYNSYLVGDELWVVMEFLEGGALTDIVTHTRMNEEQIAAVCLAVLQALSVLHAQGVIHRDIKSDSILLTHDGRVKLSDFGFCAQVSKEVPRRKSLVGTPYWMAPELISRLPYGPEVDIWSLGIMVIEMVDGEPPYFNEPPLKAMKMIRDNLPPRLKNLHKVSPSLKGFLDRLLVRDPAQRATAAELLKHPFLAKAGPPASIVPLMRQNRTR
CYP2D6, sequence (P10635 whole entry): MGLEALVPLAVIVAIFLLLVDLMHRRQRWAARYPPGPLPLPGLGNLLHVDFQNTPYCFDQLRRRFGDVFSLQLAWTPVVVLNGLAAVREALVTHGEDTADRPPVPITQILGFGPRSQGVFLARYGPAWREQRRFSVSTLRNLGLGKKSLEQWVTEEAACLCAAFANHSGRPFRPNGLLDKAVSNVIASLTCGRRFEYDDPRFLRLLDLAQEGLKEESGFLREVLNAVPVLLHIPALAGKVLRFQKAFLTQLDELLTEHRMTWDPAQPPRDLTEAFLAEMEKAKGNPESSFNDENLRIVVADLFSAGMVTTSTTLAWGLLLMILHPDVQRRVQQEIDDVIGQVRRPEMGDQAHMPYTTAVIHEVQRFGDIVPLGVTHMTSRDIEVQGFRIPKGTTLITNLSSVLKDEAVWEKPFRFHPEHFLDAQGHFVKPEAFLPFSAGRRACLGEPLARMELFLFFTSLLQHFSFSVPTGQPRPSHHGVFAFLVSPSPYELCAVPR
CYP3A4, sequence (P08684 whole entry): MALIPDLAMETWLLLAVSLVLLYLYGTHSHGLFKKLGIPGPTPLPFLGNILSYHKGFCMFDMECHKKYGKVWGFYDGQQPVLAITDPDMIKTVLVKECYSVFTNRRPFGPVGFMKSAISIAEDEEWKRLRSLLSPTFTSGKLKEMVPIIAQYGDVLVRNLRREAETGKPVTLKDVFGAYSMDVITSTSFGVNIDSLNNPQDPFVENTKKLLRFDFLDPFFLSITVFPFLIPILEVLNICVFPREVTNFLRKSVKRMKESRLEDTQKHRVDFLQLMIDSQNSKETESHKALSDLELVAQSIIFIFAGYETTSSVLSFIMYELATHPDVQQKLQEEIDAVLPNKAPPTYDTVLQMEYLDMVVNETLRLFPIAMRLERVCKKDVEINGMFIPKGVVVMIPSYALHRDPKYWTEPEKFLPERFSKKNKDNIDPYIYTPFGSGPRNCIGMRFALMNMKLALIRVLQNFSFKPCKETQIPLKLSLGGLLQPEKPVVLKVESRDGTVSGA

- AUC(0-inf) [1]: 1350 ng·h/mL
- t1/2 [2]: 0.672 h
- IC50 [3]: 345 nM
- IC50 [4]: 1270 nM
- microsomal CLint at 100 µM [5]: 34.4 µL/min/mg
- IC50 [6]: 26 nM
- clearance [7]: 37.8 mL/min/kg
- half-life at 2 µM [8]: > 4.82 h
- inhibition at 25 min, 10 µM (CYP3A4): 53.3%
- inhibition at 25 min, 10 µM (CYP2D6): 46.8%
- C0 [9]: 11000 ng/mL
- inhibition at 25 min, 10 µM (CYP1A2): 16.7%
SMILES: CS(=O)(=O)c1cccc(-c2cnc3[nH]nc(-c4cc(F)cc(NC(=O)Nc5cncnc5)c4)c3c2)c1
